Measured values published in ChEMBL document CHEMBL5620397, “Design, synthesis and biological evaluation of 3-substituted-2-thioxothiazolidin-4-one (rhodanine) derivatives as antitubercular agents against Mycobacterium tuberculosis protein tyrosine phosphatase B” (Eur J Med Chem, 2023).
Converted amounts (≈) assume the structure as drawn.

How the values were obtained:
[1] = biological target: T1, Triple specificity protein phosphatase PtpB (Mycobacterium tuberculosis (strain ATCC 25618 / H37Rv)) (UniProt I6WXK4); assay: Inhibition of Mycobacterium tuberculosis H37Rv ptpB expressed in Escherichia coli BL21(DE3) at 50 uM using pNPP as substrate preincubated for 10 mins followed by substrate addition and measured for 5 mins by spectrophotometer analysis relative to control; conditions: time 15.0 min
T1 sequence (whole entry): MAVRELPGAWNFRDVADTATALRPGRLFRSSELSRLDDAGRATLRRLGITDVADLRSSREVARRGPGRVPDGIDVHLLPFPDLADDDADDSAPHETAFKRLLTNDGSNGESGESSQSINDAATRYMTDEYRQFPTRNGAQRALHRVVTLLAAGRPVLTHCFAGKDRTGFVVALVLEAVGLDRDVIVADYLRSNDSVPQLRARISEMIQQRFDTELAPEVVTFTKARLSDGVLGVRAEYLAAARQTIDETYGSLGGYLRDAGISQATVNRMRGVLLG

[2] = biological target: T2, Triple specificity protein phosphatase PtpB (Mycobacterium tuberculosis (strain ATCC 25618 / H37Rv), UniProt I6WXK4); assay: Inhibition of Mycobacterium tuberculosis H37Rv ptpB expressed in Escherichia coli BL21(DE3) using pNPP as substrate preincubated for 10 mins followed by substrate addition and measured for 5 mins by spectrophotometer analysis
T2 sequence (I6WXK4 whole entry): T1 sequence (whole entry)

[3] = biological target: T3, Tyrosine-protein phosphatase non-receptor type 1 (Homo sapiens, UniProt P18031); assay: Inhibition of recombinant human PTP1B using pNPP as substrate preincubated for 5 mins followed by substrate addition and measured for 10 mins; assay type: toxicity
T3 sequence (P18031 whole entry): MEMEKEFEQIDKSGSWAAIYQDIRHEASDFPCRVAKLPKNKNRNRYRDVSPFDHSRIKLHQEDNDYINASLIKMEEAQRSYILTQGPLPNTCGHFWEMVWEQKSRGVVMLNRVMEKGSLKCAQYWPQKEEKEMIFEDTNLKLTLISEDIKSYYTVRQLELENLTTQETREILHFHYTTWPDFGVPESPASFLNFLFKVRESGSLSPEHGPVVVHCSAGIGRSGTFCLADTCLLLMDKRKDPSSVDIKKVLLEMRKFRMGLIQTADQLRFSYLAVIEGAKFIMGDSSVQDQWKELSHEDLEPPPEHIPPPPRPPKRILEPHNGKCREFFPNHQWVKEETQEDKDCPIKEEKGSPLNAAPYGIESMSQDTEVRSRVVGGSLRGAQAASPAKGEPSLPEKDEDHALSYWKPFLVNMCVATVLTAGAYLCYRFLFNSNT

[4] = system: Mycobacterium tuberculosis; assay: Antituberculosis activity against Mycobacterium tuberculosis H37Rv by microplate alamar blue assay; assay type: functional
[5] = Cytotoxicity against mouse J774.G8 cells after 48 hrs by MTT assay; assay type: functional, cell-based; conditions: J774.G8, 48 h
[6] = system: Vero; assay: cells; conditions: Chlorocebus sabaeus, 48 h
Description: Cytotoxicity against african green monkey Vero cells after 48 hrs by MTT assay

[7] = biological target: T1, Triple specificity protein phosphatase PtpB (Mycobacterium tuberculosis (strain ATCC 25618 / H37Rv)); assay: Inhibition of Mycobacterium tuberculosis H37Rv ptpB expressed in Escherichia coli BL21(DE3) at 10 uM using pNPP as substrate preincubated for 10 mins followed by substrate addition and measured for 5 mins by spectrophotometer analysis relative to control; conditions: time 15.0 min
[8] = biological target: T4, Low molecular weight protein-tyrosine phosphatase A (Mycobacterium tuberculosis) (UniProt P9WIA1); assay: Inhibition of Mycobacterium tuberculosis H37Rv ptpA expressed in Escherichia coli BL21(DE3) at 10 uM using pNPP as substrate preincubated for 10 mins followed by substrate addition and measured for 5 mins by spectrophotometer analysis relative to control; conditions: time 15.0 min
T4 sequence (whole entry): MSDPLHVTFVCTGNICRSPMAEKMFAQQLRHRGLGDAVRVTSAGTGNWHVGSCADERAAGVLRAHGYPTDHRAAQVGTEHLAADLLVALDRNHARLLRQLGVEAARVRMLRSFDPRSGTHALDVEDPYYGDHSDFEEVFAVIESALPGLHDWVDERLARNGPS

[9] = Metabolic stability in mouse liver microsomes in absence of NADPH by LC-MS/MS assay; assay type: ADME, Microsome
[10] = Metabolic stability in human liver microsomes in absence of NADPH by LC-MS/MS assay; assay type: ADME, Microsome
[11] = Metabolic stability in human liver microsomes assessed as substrate remaining preincubated for 5 mins followed by NADPH addition and measured upto 30 mins by LC-MS/MS assay; assay type: ADME, Microsome; conditions: time < 35 min, read-out: Stability
[12] = Metabolic stability in human liver microsomes assessed as half life preincubated for 5 mins followed by NADPH addition and measured upto 30 mins by LC-MS/MS assay; assay type: ADME, Microsome; conditions: time < 35 min
[13] = Metabolic stability in human liver microsomes assessed as intrinsic clearance per mg protein preincubated for 5 mins followed by NADPH addition and measured upto 30 mins by LC-MS/MS assay; assay type: ADME, Microsome; conditions: time < 35 min, read-out: CLH
[14] = Metabolic stability in mouse liver microsomes assessed as substrate remaining preincubated for 5 mins followed by NADPH addition and measured upto 30 mins by LC-MS/MS assay; assay type: ADME, Microsome; conditions: time < 35 min, read-out: Stability
[15] = Metabolic stability in mouse liver microsomes assessed as half life preincubated for 5 mins followed by NADPH addition and measured upto 30 mins by LC-MS/MS assay; assay type: ADME, Microsome; conditions: time < 35 min
[16] = Metabolic stability in mouse liver microsomes assessed as intrinsic clearance per mg protein preincubated for 5 mins followed by NADPH addition and measured upto 30 mins by LC-MS/MS assay; assay type: ADME, Microsome; conditions: time < 35 min, read-out: CLH
[17] = system: Mycobacterium tuberculosis; assay: Antituberculosis activity against Mycobacterium tuberculosis H37Rv in mouse J774A.1 cells assessed as reduction in intracellular bacterial burden measured after 21 days by agar plate method; assay type: functional, organism-based; conditions: J774.A1, dose 1-10 µg/ml, time 21.0 day
[18] = system: PTP1B versus M. tuberculosis ptpB; assay: Selectivity index, ratio of IC50 for human PTP1B to Mycobacterium tuberculosis H37Rv ptpB; assay type: toxicity; conditions: read-out: Ratio IC50

Compound | inhibition [1] | IC50 [2] | IC50 [3] | also measured
O=C(O)[C@H](C1CCCCC1)N1C(=O)/C(=C/c2ccc(-c3ccc(C(F)(F)F)cc3)cc2)SC1=S | 103% | 3130 nM | – | –
CCCC[C@@H](C(=O)O)N1C(=O)/C(=C/c2ccc(-c3cccc(OC)c3)cc2)SC1=S | 100% | 750 nM | 430 nM | –
CCCC[C@@H](C(=O)O)N1C(=O)/C(=C/c2ccc(-c3ccc(OC)cc3)cc2)SC1=S | 99.4% | 550 nM | 770 nM | –
CCN(CC)c1ccc(/C=C2\SC(=S)NC2=O)c(OCc2ccc(Cl)cc2Cl)c1 | > 35% | – | – | –
O=C(O)[C@@H](C1CCCCC1)N1C(=O)/C(=C/c2ccc(-c3ccc(F)c(C(F)(F)F)c3)cc2)SC1=S | 30.5% | – | – | –
NNC(=O)c1ccncc1 [ISONIAZID] | – | – | – | MIC [4]: 0.038 µg/mL (≈ 0.277 µM); IC50 [5]: > 64 µg/mL; IC50 [6]: > 64 µg/mL
CCCC[C@@H](C(=O)O)N1C(=O)/C(=C/c2ccc(-c3cccc(C(F)(F)F)c3)c(Cl)c2)SC1=S | – | 420 nM | 1530 nM | inhibition [7]: 99.6%
CCCC[C@@H](C(=O)O)N1C(=O)/C(=C/c2ccc(-c3cccc(Cl)c3)c(Cl)c2)SC1=S | – | 330 nM | 940 nM | inhibition [7]: 102%
O=C(O)[C@H](Cc1ccccc1)N1C(=O)/C(=C/c2ccc(-c3ccc(F)c(C(F)(F)F)c3)cc2)SC1=S | 71.3% | 920 nM | – | –
O=C(O)[C@H](C1CCCCC1)N1C(=O)/C(=C/c2ccc(-c3ccc(F)c(C(F)(F)F)c3)cc2)SC1=S | 101% | 490 nM | 5370 nM | MIC [4]: 30.5 µg/mL (≈ 58.3 µM); IC50 [5]: > 64 µg/mL; inhibition [8]: 27.1%; Stability [9]: Stable; Stability [10]: Stable; remaining at 0.5 h [11]: 101%; half-life [12]: > 1.55 h; microsomal CLint [13]: < 6.1 µL/min/mg; remaining at 0.5 h [14]: 101%; half-life [15]: > 1.55 h; microsomal CLint [16]: < 22.1 µL/min/mg; Activity [17]: Dose-Dependent Effect; IC50 [6]: 30.2 µg/mL (≈ 57.7 µM)
CCCC[C@H](C(=O)O)N1C(=O)/C(=C/c2ccc(-c3ccc(F)c(C(F)(F)F)c3)cc2)SC1=S | 26.4% | – | – | –
CCCC[C@@H](C(=O)O)N1C(=O)/C(=C/c2ccc(-c3ccc(C(F)(F)F)cc3)cc2)SC1=S | 100% | 860 nM | 1340 nM | –
O=C(O)[C@H](C1CCCCC1)N1C(=O)/C(=C/c2ccc(-c3cccc(C(F)(F)F)c3)cc2)SC1=S | 96.5% | 350 nM | 1750 nM | selectivity ratio [18]: 5; MIC [4]: 31.4 µg/mL (≈ 62.1 µM); IC50 [5]: 38 µg/mL (≈ 75.2 µM); inhibition [8]: 16.6%; Stability [9]: Stable; Stability [10]: Stable; remaining at 0.5 h [11]: 101%; half-life [12]: > 1.55 h; microsomal CLint [13]: < 6.1 µL/min/mg; remaining at 0.5 h [14]: 80%; half-life [15]: > 1.55 h; microsomal CLint [16]: < 22.1 µL/min/mg; Activity [17]: Dose-Dependent Effect; IC50 [6]: 30.6 µg/mL (≈ 60.5 µM)
O=C(O)CN1C(=O)/C(=C/c2ccc(-c3ccc(F)c(C(F)(F)F)c3)cc2)SC1=S | 99.4% | 16400 nM | – | –
CCCC[C@@H](C(=O)O)N1C(=O)/C(=C/c2ccc(-c3cccc(Cl)c3)c3ccccc23)SC1=S | – | 670 nM | 1530 nM | inhibition [7]: 99.9%
CCCC[C@@H](C(=O)O)N1C(=O)/C(=C/c2ccc(-c3ccccc3)cc2)SC1=S | 94% | 620 nM | – | –
CCCC[C@@H](C(=O)O)N1C(=O)/C(=C/c2ccc(-c3cccc(C(F)(F)F)c3)c3ccccc23)SC1=S | – | 590 nM | 40 nM | inhibition [7]: 98.6%
CCCC[C@@H](C(=O)O)N1C(=O)/C(=C/c2ccc(-c3ccc(Cl)s3)cc2)SC1=S | 98.4% | 430 nM | 200 nM | –
CCCC[C@@H](C(=O)O)N1C(=O)/C(=C/c2ccc(-c3ccc(F)c(C(F)(F)F)c3)c3ccccc23)SC1=S | – | 670 nM | 5540 nM | inhibition [7]: 105%
CCCC[C@@H](C(=O)O)N1C(=O)/C(=C/c2ccc(-c3ccc(Cl)cc3)cc2)SC1=S | 98.9% | 600 nM | 1510 nM | –
O=C(O)[C@H](c1ccccc1)N1C(=O)/C(=C/c2ccc(-c3ccc(F)c(C(F)(F)F)c3)cc2)SC1=S | 97% | 2340 nM | – | –
CCCC[C@@H](C(=O)O)N1C(=O)/C(=C/c2ccc(-c3cccc(Cl)c3)cn2)SC1=S | – | 530 nM | 390 nM | inhibition [7]: 99.5%
CCCC[C@@H](C(=O)O)N1C(=O)/C(=C/c2ccc(-c3ccncc3Cl)cc2)SC1=S | 97.1% | 800 nM | – | –
O=C(O)[C@H](C1CCCCC1)N1C(=O)/C(=C/c2ccc(-c3cccc(Cl)c3)cc2)SC1=S | 106% | 990 nM | 1120 nM | –
CCCC[C@@H](C(=O)O)N1C(=O)/C(=C/c2ccc(-c3cccc(Cl)c3)s2)SC1=S | – | 440 nM | 160 nM | inhibition [7]: 99%
CCCC[C@@H](C(=O)O)N1C(=O)/C(=C/c2ccc(-c3cccc(Cl)c3)cc2)SC1=S | 102% | 380 nM | 1870 nM | selectivity ratio [18]: 5
O=C(O)[C@H](C1CCCCC1)N1C(=O)/C(=C/c2ccc(-c3ccccc3C(F)(F)F)cc2)SC1=S | 93% | 920 nM | 1600 nM | –
O=C(O)[C@@H](Cc1ccccc1)N1C(=O)/C(=C/c2ccc(-c3ccc(F)c(C(F)(F)F)c3)cc2)SC1=S | 56.8% | – | – | –
